Data from publication PMC8330757, “Design and characterisation of piperazine-benzofuran integrated dinitrobenzenesulfonamide as Mycobacterium tuberculosis H37Rv strain inhibitors” (Journal of Enzyme Inhibition and Medicinal Chemistry, 2021).
≈ marks a conversion by molar mass, not a printed value. Like-named read-outs stand apart in the source and are kept apart here.

Key:
[1] = DPPH radical scavenging assay; conditions: absorbance at 517 nm after 30 min
Description: In TB, oxidative stress may result in tissue inflammation due to anti-TB drugs. The synthesised compounds have shown promising anti-TB activity and have the potential to develop as lead compounds. Therefore, it is necessary to evaluate the synthesised compounds for their antioxidant activity. Antioxidant activities of the synthesised compounds were measured using 2,2-diphenyl-1-picrylhydrazyl (DPPH) radical scavenging assay. DPPH radical scavenging activity is the most commonly used method for screening the antioxidant activities of the various natural as well as synthetic antioxidants. A lower IC50 value indicates greater antioxidant activity. […]
(§1) completion of starting material and formation of polar spot. The reaction mixture was concentrated to dry to give 7a-7d, used directly in next step.
(§2) 1.2. In-vitro Mtb MABA assay
(§3) Briefly, the inoculum was prepared from fresh LJ medium re -suspended in 7H9-S medium (7H9 broth, 0.1% casitone, 0.5% glycerol, supplemented oleic acid, albumin, dextrose, and catalase [OADC]), adjuste d to an OD590 1.0, and diluted 1:20; 100 µl was used as inoculum. Each drug stock solution was thawed and diluted in 7H9 -S at four-fold the final highest concentration tested. Serial two-fold dilutions of each drug were prepared directly in a sterile 96 -well microtiter plate using 100 µl 7H9 -S. A growth control containing no antibiotic and a sterile control were also prepared on each plate. Sterile water was added to all perimeter wells to avoid evaporation during the incubation. The plate was covered, seal ed in plastic bags and incubated at 37 °C in normal atmosphere. After 7 days incubation, 30 µl of Alamar blue solution was added to each well, and the plate was re -incubated overnight. A change in colour from blue (oxidised state) to pink (reduced) indicat ed the growth of bacteria, and the MIC was defined as the lowest concentration of drug that prevented this change in colour. […]
(§4) the concentration of […]. After 72 h of exposure, viability was assessed on the basis of cellular conversion of MTT into a formazan product using the Promega Cell Titer 96 non - radioactive cell proliferation assay.
(§5) 1.4. DPPH radical scavenging activity
(§6) The hydrogen atom or electron donation ability of some compounds were measured from the bleaching of the purple colored methanol solution of […] (DPPH). The spectrophotometric assay uses the stable radical DPPH as a reagent. 1 mL of various concentrations of the test compounds (5, 10, 25, 50 and 100 μg/mL) in methanol was added to 4 mL of 0.004% (w/v) methanol solution of DPPH. The reaction mixture was incubated at 37 °C.
(§7) The scavenging activity on DPPH was determined by measuring the absorbance at 517 nm after 30 min. All tests were performed in triplicate and the mean values were entered. The percent of inhibition (I %) of free radical production from DPPH was calculated by the following equation % of scavenging = [(A control – A sample)/ […]]. Where, A control is the […]

[2] = In vitro cytotoxicity, MTT assay; assay type: cell-based, human; conditions: human, A549 cells, read-out: Human cell lines A549 IC50 approximation
Description: (§8) The safety profile of the active hybrids was also accessed by testing in vitro cytotoxicity against human cell-line A549 cells at 50 μg/mL concentration by (4,5-dimethylthiazol-2-yl)-2,5-diphenyltetrazolium bromide (MTT) assay. […]
as §1, §2, §3, §4, §5, §6, §7

[3] = system: human cell-line A549 cells; test: In vitro cytotoxicity, MTT assay; assay type: cell-based; conditions: 50 μg/mL, 72 h exposure
Description: as §8, §1, §2, §3, §4, §5, §6, §7

Mtb H37Rv (ATCC27294) = test: In vitro anti-TB activity (MIC) against Mtb H37Rv; assay type: cell-based, Mycobacterium tuberculosis; conditions: for MIC: Mycobacterium tuberculosis, read-out: Anti-TB (MIC)
[4] = Mtb H37Rv, most active compounds tested in triplicates

Structure (SMILES)	DPPH IC50 [1] [µg/mL]	IC50 at 72 h [2] [µg/mL]	% Cell inhibition at 50 μg/mL [3] [%]	Anti-TB (MIC) (Mtb H37Rv (ATCC27294); [4]) [µg/mL]	MIC (Mtb H37Rv (ATCC27294)) [µg/mL]	MIC (Mtb H37Rv (ATCC27294); [4]) [µg/mL]
O=C1O[C@H]([C@@H](O)CO)C(O)=C1O [Ascorbic acid, reference compound]	12.7					
CCOC(=O)c1cc2cc(N3CCN(S(=O)(=O)c4ccc([N+](=O)[O-])cc4[N+](=O)[O-])CC3)ccc2o1 [Compound 4a, ethyl 5-(4-(2,4-dintrobenzenesulfonyl)piperazin-1-yl)benzofuran-2-carboxylate]	15.25	> 50	20.80	0.78	0.78 ± 0.36 (≈ 1.55 µM)	
CCOC(=O)c1cc2cc(N3CCN(C(=O)CNS(=O)(=O)c4ccc([N+](=O)[O-])cc4[N+](=O)[O-])CC3)ccc2o1 [Compound 4b, ethyl 5-(4-(2-(2,4-dinitrophenylsulfonamido)acetyl)piperazin-1-yl)benzofuran-2-carboxylate]	50.33	> 50	37.41		3.12 ± 1.47 (≈ 5.56 µM)	
CCOC(=O)c1cc2cc(N3CCN(C(=O)CCCNS(=O)(=O)c4ccc([N+](=O)[O-])cc4[N+](=O)[O-])CC3)ccc2o1 [Compound 4d, ethyl 5-(4-(4-(2,4-dinitrophenylsulfonamido)butanoyl)piperazin-1-yl) benzofuran-2-carboxylate]	33.50	> 50	35.95		1.56 ± 0.36 (≈ 2.65 µM)	
CCOC(=O)c1cc2cc(N3CCN(C(=O)C4CCN(S(=O)(=O)c5ccc([N+](=O)[O-])cc5[N+](=O)[O-])CC4)CC3)ccc2o1 [Compound 4e, ethyl 5-(4-(1-((2,4-dinitrophenyl)sulphonyl)piperidine-4-carbonyl)piperazin-1-yl)benzofuran-2-carboxylate]	45.21	> 50	18.95		1.56 ± 0.97 (≈ 2.53 µM)	
CCOC(=O)c1cc2cc(N3CCN(C(=O)C4CCCN(S(=O)(=O)c5ccc([N+](=O)[O-])cc5[N+](=O)[O-])C4)CC3)ccc2o1 (stereo not drawn) [Compound 4f, ethyl 5-(4-(1-((2,4-dinitrophenyl)sulphonyl)piperidine-3-carbonyl)piperazin-1-yl)benzofuran-2-carboxylate]	39.01	> 50	22.75		1.56 ± 0.73 (≈ 2.53 µM)	
CCOC(=O)c1cc2cc(N3CCN(C(=O)[C@@H]4CCCN4S(=O)(=O)c4ccc([N+](=O)[O-])cc4[N+](=O)[O-])CC3)ccc2o1 [Compound 4g, (S)-ethyl 5-(4-(1-((2,4-dinitrophenyl)sulphonyl)pyrrolidine-2-carbonyl)piperazin-1-yl)benzofuran-2-carboxylate]	55.25	> 50	29.64		6.25 (≈ 10.4 µM)	
CCOC(=O)c1cc2cc(N3CCN(C(=O)[C@H]4CCCN4S(=O)(=O)c4ccc([N+](=O)[O-])cc4[N+](=O)[O-])CC3)ccc2o1 [Compound 4h, (R)-ethyl 5-(4-(1-((2,4-dinitrophenyl)sulphonyl)pyrrolidine-2-carbonyl)piperazin-1-yl)benzofuran-2-carboxylate]	49.75	> 50	33.08		> 25	
CCOC(=O)c1cc2cc(N3CCN(C(=O)C4CCN(S(=O)(=O)c5ccc([N+](=O)[O-])cc5[N+](=O)[O-])C4)CC3)ccc2o1 (stereo not drawn) [Compound 4i, ethyl 5-(4-(1-((2,4-dinitrophenyl)sulphonyl)pyrrolidine-3-carbonyl)piperazin-1-yl)benzofuran-2-carboxylate]	52.44	> 50	19.38		6.25 (≈ 10.4 µM)	
CCOC(=O)c1cc2cc(N3CCN(C(=O)C(C)(C)NS(=O)(=O)c4ccc([N+](=O)[O-])cc4[N+](=O)[O-])CC3)ccc2o1 [Compound 4j, ethyl 5-(4-(2-(2,4-dinitrophenylsulfonamido)-2-methylpropanoyl)piperazin-1-yl)benzofuran-2-carboxylate]	20.43	> 50	39.28	0.78	0.78 ± 0.48 (≈ 1.32 µM)	
CCOC(=O)c1cc2cc(N3CCN(C(=O)C(NS(=O)(=O)c4ccc([N+](=O)[O-])cc4[N+](=O)[O-])c4ccccc4)CC3)ccc2o1 (stereo not drawn) [Compound 4k, ethyl 5-(4-(2-(2,4-dinitrophenylsulfonamido)-2-phenylacetyl)piperazin-1-yl) benzofuran-2-carboxylate]	45.87	> 50	22.55		> 25	
NC(=O)c1cc2cc(N3CCN(S(=O)(=O)c4ccc([N+](=O)[O-])cc4[N+](=O)[O-])CC3)ccc2o1 [Compound 4m, 5-(4-((2,4-dinitrophenyl)sulphonyl)piperazin-1-yl)benzofuran-2-carboxamide]	45.44	> 50	23.65		25 (≈ 52.6 µM)	
O=C(Nc1ccccc1)c1cc2cc(N3CCN(S(=O)(=O)c4ccc([N+](=O)[O-])cc4[N+](=O)[O-])CC3)ccc2o1 [Compound 4n, 5-(4-((2,4-dinitrophenyl)sulphonyl)piperazin-1-yl)-N-phenylbenzofuran-2-carboxamide]	40.64	> 50	27.98		3.12 ± 1.1 (≈ 5.66 µM)	
O=C(c1cc2cc(N3CCN(S(=O)(=O)c4ccc([N+](=O)[O-])cc4[N+](=O)[O-])CC3)ccc2o1)N1CCCCC1 [Compound 4o, (5-(4-((2,4-dinitrophenyl)sulphonyl)piperazin-1-yl)benzofuran-2-yl) (piperidin-1-yl)methanone]	19.27	> 50	31.58	1.56	1.56 ± 0.36 (≈ 2.87 µM)	
CN1CCN(C(=O)c2cc3cc(N4CCN(S(=O)(=O)c5ccc([N+](=O)[O-])cc5[N+](=O)[O-])CC4)ccc3o2)CC1 [Compound 4p, (5-(4-((2,4-dinitrophenyl)sulphonyl)piperazin-1-yl)benzofuran-2-yl)(4-methylpiperazin-1-yl) methanone]	48.66	> 50	30.18		6.25 (≈ 11.2 µM)	
CC[C@@H](CO)NCCN[C@@H](CC)CO [Ethambutol, reference compound]				1.56		1.56 ± 0.76 (≈ 7.64 µM)
NNC(=O)c1ccncc1 [Isoniazid, reference compound]				0.05		0.05 ± 0.02 (≈ 0.365 µM)
CO[C@H]1/C=C/O[C@@]2(C)Oc3c(C)c(O)c4c(O)c(c(/C=N/N5CCN(C)CC5)c(O)c4c3C2=O)NC(=O)/C(C)=C\C=C\[C@H](C)[C@H](O)[C@@H](C)[C@@H](O)[C@@H](C)[C@H](OC(C)=O)[C@@H]1C [Rifampicin, reference compound]				0.1		0.1 ± 0.04 (≈ 0.122 µM)
